B1: P domain of BsLonBA (residues 347-552) (domain or fragment, Bacillus subtilis strain 168, UniProt P42425 347-552, looked up)
chain: GVEPQVGIVNGLAVYGPNSGSLLEIEVSVTAAQDKGSINITGIAEEESIGSQSKSIRRKSMAKGSVENVLTVLRTMGMKPSDYDIHINFPGGIPIDGPSAGIAMAAGIFSAIHKIPIDNTVAMTGEISLNGLVKPIGGVIPKIKAAKQSGAKKVIIPYENQQAILKQIDGIEIIAVKTFQEVLDEILVNPPTEQKPFHIEINKESV
modifications: bortezomib covalently bound to the Oγ of Ser445 via the boronate moiety (in the crystal only; added after the sizing column)
notes: LonBA protease (previously assigned as LonB) of Bacillus subtilis strain 168, protease (P) domain, residues Gly347-Val552 of the 552-residue enzyme; catalytic dyad Ser445 and Lys488; Dimer on the sizing column, hexamer in the crystal by crystallographic symmetry (two chains in the asymmetric unit); Modelled in the maps: residues 352-547 in chain A and 348-535 in chain B; also called protease …

Legend:
BsLonBA = target: T1, BsLonBA (Bacillus subtilis, UniProt P42425); experiment: IC50 from PepTBE peptidase assay of full-length enzyme; format: biochemical
T1 construct: gene lon2; P domain, residues 347–552 (crystal); full-length BsLonBA-H6 (IC50)

EcLonA = target: T2, EcLonA (Escherichia coli, UniProt P0A9M0); experiment: inhibition of PepTBE hydrolysis (peptidase assay, DTDP detection); also suppresses β-casein proteolysis; format: biochemical
T2 construct: gene lon; EcLonA-H6 (C-terminal hexahistidine tag)

[1] = target: the molecule itself; experiment: SEC; HiPrep 26/60 Sephacryl S-200 HR sizing column before crystallization, 25 mM Tris pH 7.5, 200 mM NaCl, 2 mM TCEP, 4-8 °C; no bortezomib
[2] = target: the molecule itself; experiment: crystal structure; P domain with bortezomib (molar ratio 1:6), 10 mM MgCl2, hanging drop, 35% PEG400 pH 7.8; space group P6_(3), two molecules in the asymmetric unit, hexamer by the crystallographic 3-fold axis; 1.9 Å

T2 sequence (P0A9M0 2-784): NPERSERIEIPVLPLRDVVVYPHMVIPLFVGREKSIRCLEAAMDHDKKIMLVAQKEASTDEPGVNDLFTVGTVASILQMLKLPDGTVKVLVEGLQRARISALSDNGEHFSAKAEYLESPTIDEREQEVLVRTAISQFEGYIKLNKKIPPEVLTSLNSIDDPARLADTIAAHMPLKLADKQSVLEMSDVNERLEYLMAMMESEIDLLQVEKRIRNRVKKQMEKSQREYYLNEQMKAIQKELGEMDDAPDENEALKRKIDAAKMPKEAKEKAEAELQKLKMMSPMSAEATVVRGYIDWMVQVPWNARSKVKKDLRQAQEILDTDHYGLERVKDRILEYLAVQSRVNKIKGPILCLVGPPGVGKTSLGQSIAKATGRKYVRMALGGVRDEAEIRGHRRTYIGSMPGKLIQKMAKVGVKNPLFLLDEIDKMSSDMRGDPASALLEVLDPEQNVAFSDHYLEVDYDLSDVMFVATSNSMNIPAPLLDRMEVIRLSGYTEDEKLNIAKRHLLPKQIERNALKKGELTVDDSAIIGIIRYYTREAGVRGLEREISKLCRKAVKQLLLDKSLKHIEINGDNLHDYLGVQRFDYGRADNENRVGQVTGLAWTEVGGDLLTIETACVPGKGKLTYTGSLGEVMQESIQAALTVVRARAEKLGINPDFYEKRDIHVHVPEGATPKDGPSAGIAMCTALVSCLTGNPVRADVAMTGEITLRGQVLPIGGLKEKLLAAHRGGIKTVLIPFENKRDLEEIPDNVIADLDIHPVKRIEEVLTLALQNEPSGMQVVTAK
T1 sequence (P42425 whole entry, the tested form may be a part): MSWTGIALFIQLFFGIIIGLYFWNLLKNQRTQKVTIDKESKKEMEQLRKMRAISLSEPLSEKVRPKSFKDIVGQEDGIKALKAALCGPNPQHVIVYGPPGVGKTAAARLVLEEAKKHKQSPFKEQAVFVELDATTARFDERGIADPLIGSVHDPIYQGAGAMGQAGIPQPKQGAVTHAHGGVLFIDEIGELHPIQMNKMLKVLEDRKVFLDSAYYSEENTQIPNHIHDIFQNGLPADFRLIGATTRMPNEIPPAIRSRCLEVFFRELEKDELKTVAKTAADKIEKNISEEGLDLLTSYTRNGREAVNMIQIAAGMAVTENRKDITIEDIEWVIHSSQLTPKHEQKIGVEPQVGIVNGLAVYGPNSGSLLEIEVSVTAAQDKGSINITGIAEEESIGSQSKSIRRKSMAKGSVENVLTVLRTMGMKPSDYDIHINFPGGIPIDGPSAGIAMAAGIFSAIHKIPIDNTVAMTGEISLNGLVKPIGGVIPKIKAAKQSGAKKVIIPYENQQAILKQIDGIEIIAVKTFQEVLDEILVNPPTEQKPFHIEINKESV

Row | Molecule | IC50 (BsLonBA) [nM] | IC50 (EcLonA) [nM] | stoichiometry N [1] | stoichiometry N [2]
1 | CC(C)C[C@H](NC(=O)[C@H](Cc1ccccc1)NC(=O)c1cnccn1)B(O)O [bortezomib] | 1150 | 50 | – | –
2 | B1 | – | – | 2 | 6
